Reference: ChEMBL document CHEMBL2331210, “New 2-benzylsulfanyl-nicotinic acid based 1,3,4-oxadiazoles: their synthesis and biological evaluation” (2013)
≈ marks a conversion by molar mass, not a printed value.

How the values were obtained:
Assay type in all cases: functional
UO-31 = assay: Antitumor activity against human UO31 cells assessed as cell growth at 0.1 uM; settings: read-out: Activity
TK-10 = assay: Antitumor activity against human TK10 cells assessed as cell growth at 0.1 uM; settings: read-out: Activity
SN12C = assay: Antitumor activity against human SN12C cells assessed as cell growth at 0.1 uM; settings: read-out: Activity
RXF 393 = assay: Antitumor activity against human RXF393 cells assessed as cell growth at 0.1 uM; settings: read-out: Activity
ACHN = assay: Antitumor activity against human ACHN cells assessed as cell growth at 0.1 uM; settings: read-out: Activity
CAKI-1 = assay: Antitumor activity against human CAKI-1 cells assessed as cell growth at 0.1 uM; settings: read-out: Activity
A498 = assay: Antitumor activity against human A498 cells assessed as cell growth at 0.1 uM; settings: read-out: Activity
SK-OV-3 = assay: Antitumor activity against human SKOV3 cells assessed as cell growth at 0.1 uM; settings: read-out: Activity
NCI/ADR-RES = assay: Antitumor activity against human NCI/ADR-RES cells assessed as cell growth at 0.1 uM; settings: read-out: Activity
OVCAR-8 = assay: Antitumor activity against human OVCAR8 cells assessed as cell growth at 0.1 uM; settings: read-out: Activity
OVCAR-5 = assay: Antitumor activity against human OVCAR5 cells assessed as cell growth at 0.1 uM; settings: read-out: Activity
OVCAR-3 = assay: Antitumor activity against human OVCAR3 cells assessed as cell growth at 0.1 uM; settings: read-out: Activity
OVCAR-4 = assay: Antitumor activity against human OVCAR4 cells assessed as cell growth at 0.1 uM; settings: read-out: Activity
IGROV-1 = assay: Antitumor activity against human IGROV1 cells assessed as cell growth at 0.1 uM; settings: read-out: Activity
UACC-62 = assay: Antitumor activity against human UACC62 cells assessed as cell growth at 0.1 uM; settings: read-out: Activity
UACC-257 = assay: Antitumor activity against human UACC257 cells assessed as cell growth at 0.1 uM; settings: read-out: Activity
SK-MEL-5 = assay: Antitumor activity against human SK-MEL-5 cells assessed as cell growth at 0.1 uM; settings: read-out: Activity
SK-MEL-28 = assay: Antitumor activity against human SK-MEL-28 cells assessed as cell growth at 0.1 uM; settings: read-out: Activity
MDA-MB-435 = assay: Antitumor activity against human MDA-MB-435 cells assessed as cell growth at 0.1 uM; settings: read-out: Activity
M14 = assay: Antitumor activity against human M14 cells assessed as cell growth at 0.1 uM; settings: read-out: Activity
Malme-3M = assay: Antitumor activity against human MALME-3M cells assessed as cell growth at 0.1 uM; settings: read-out: Activity
LOX IMVI = assay: Antitumor activity against human LOXIMVI cells assessed as cell growth at 0.1 uM; settings: read-out: Activity
U-251 = assay: Antitumor activity against human U251 cells assessed as cell growth at 0.1 uM; settings: read-out: Activity
SNB-75 = assay: Antitumor activity against human SNB75 cells assessed as cell growth at 0.1 uM; settings: read-out: Activity
SF-539 = assay: Antitumor activity against human SF539 cells assessed as cell growth at 0.1 uM; settings: read-out: Activity
SNB-19 = assay: Antitumor activity against human SNB19 cells assessed as cell growth at 0.1 uM; settings: read-out: Activity
SF-295 = assay: Antitumor activity against human SF295 cells assessed as cell growth at 0.1 uM; settings: read-out: Activity
SF-268 = assay: Antitumor activity against human SF268 cells assessed as cell growth at 0.1 uM; settings: read-out: Activity
SW-620 = assay: Antitumor activity against human SW620 cells assessed as cell growth at 0.1 uM; settings: read-out: Activity
KM12 = assay: Antitumor activity against human KM12 cells assessed as cell growth at 0.1 uM; settings: read-out: Activity
HCT-15 = assay: Antitumor activity against human HCT15 cells assessed as cell growth at 0.1 uM; settings: read-out: Activity
HT-29 = assay: Antitumor activity against human HT-29 cells assessed as cell growth at 0.1 uM; settings: read-out: Activity
HCT-116 = assay: Antitumor activity against human HCT116 cells assessed as cell growth at 0.1 uM; settings: read-out: Activity
[1] = Antitumor activity against human HCC2998 cells assessed as cell growth at 0.1 uM; settings: HCC 2998, read-out: Activity
NCI-H460 = assay: Antitumor activity against human NCI-H460 cells assessed as cell growth at 0.1 uM; settings: read-out: Activity
NCI-H522 = assay: Antitumor activity against human NCI-H522 cells assessed as cell growth at 0.1 uM; settings: read-out: Activity
NCI-H23 = assay: Antitumor activity against human NCI-H23 cells assessed as cell growth at 0.1 uM; settings: read-out: Activity
NCI-H226 = assay: Antitumor activity against human NCI-H226 cells assessed as cell growth at 0.1 uM; settings: read-out: Activity
HOP-62 = assay: Antitumor activity against human HOP62 cells assessed as cell growth at 0.1 uM; settings: read-out: Activity
[2] = Antitumor activity against human EKVX cells assessed as cell growth at 0.1 uM; settings: read-out: Activity
A549 = assay: Antitumor activity against human A549/ATCC cells assessed as cell growth at 0.1 uM; settings: read-out: Activity
SR = assay: Antitumor activity against human SR cells assessed as cell growth at 0.1 uM; settings: read-out: Activity
MOLT-4 = assay: Antitumor activity against human MOLT4 cells assessed as cell growth at 0.1 uM; settings: read-out: Activity
RPMI-8226 = assay: Antitumor activity against human RPMI8226 cells assessed as cell growth at 0.1 uM; settings: read-out: Activity
K562 = assay: Antitumor activity against human K562 cells assessed as cell growth at 0.1 uM; settings: read-out: Activity
HL-60 = assay: Antitumor activity against human HL60(TB) cells assessed as cell growth at 0.1 uM; settings: read-out: Activity
CCRF-CEM = assay: Antitumor activity against human CCRF-CEM cells assessed as cell growth at 0.1 uM; settings: read-out: Activity
[3] = test system: Mycobacterium tuberculosis; assay: Antitubercular activity against Mycobacterium tuberculosis H37Rv assessed as growth inhibition after 12 to 28 days by L.J. agar MIC method
Aspergillus clavatus = assay: Antimicrobial activity against Aspergillus clavatus MTCC 1323 assessed as growth inhibition measured after overnight incubation by broth dilution method
Aspergillus niger = assay: Antimicrobial activity against Aspergillus niger MTCC 282 assessed as growth inhibition measured after overnight incubation by broth dilution method
Candida albicans = assay: Antimicrobial activity against Candida albicans MTCC 227 assessed as growth inhibition measured after overnight incubation by broth dilution method
Pseudomonas aeruginosa = assay: Antimicrobial activity against Pseudomonas aeruginosa MTCC 2488 assessed as growth inhibition measured after overnight incubation by broth dilution method
Escherichia coli = assay: Antimicrobial activity against Escherichia coli MTCC 443 assessed as growth inhibition measured after overnight incubation by broth dilution method
Streptococcus pyogenes = assay: Antimicrobial activity against Streptococcus pyogenes MTCC 442 assessed as growth inhibition measured after overnight incubation by broth dilution method
Staphylococcus aureus = assay: Antimicrobial activity against Staphylococcus aureus MTCC 96 assessed as growth inhibition measured after overnight incubation by broth dilution method
MDA-MB-468 = assay: Antitumor activity against human MDA-MB-468 cells assessed as cell growth at 0.1 uM; settings: read-out: Activity
T47D = assay: Antitumor activity against human T47D cells assessed as cell growth at 0.1 uM; settings: read-out: Activity
[4] = Antitumor activity against human Hs 578T cells assessed as cell growth at 0.1 uM; settings: read-out: Activity
BT-549 = assay: Antitumor activity against human BT549 cells assessed as cell growth at 0.1 uM; settings: read-out: Activity
MDA-MB-231 = assay: Antitumor activity against human MDA-MB-231/ATCC cells assessed as cell growth at 0.1 uM; settings: read-out: Activity
DU-145 = assay: Antitumor activity against human DU145 cells assessed as cell growth at 0.1 uM; settings: read-out: Activity
MCF7 = assay: Antitumor activity against human MCF7 cells assessed as cell growth at 0.1 uM; settings: read-out: Activity
PC-3 = assay: Antitumor activity against human PC3 cells assessed as cell growth at 0.1 uM; settings: read-out: Activity

Question: Which growth at 0.1 µM (UO-31) does the source give for `c1ccc(CSc2ncccc2-c2nnc(SCCN3CCOCC3)o2)cc1` here?
Answer: 89.4%

Question: And the growth at 0.1 µM (TK-10)?
Answer: 118%

Question: What about the growth at 0.1 µM (SN12C) of the same molecule?
Answer: 114%

Question: And the growth at 0.1 µM (RXF 393)?
Answer: 123%

Question: And the growth at 0.1 µM (ACHN)?
Answer: 124%

Question: What about the growth at 0.1 µM (CAKI-1) of the same molecule?
Answer: 100%

Question: And the growth at 0.1 µM (A498)?
Answer: 107%

Question: And the growth at 0.1 µM (SK-OV-3)?
Answer: 109%

Question: And the growth at 0.1 µM (NCI/ADR-RES)?
Answer: 107%

Question: What about the growth at 0.1 µM (OVCAR-8) of the same molecule?
Answer: 109%

Question: What about the growth at 0.1 µM (OVCAR-5) of the same molecule?
Answer: 119%

Question: What about the growth at 0.1 µM (OVCAR-3) of the same molecule?
Answer: 120%

Question: What about the growth at 0.1 µM (OVCAR-4) of the same molecule?
Answer: 106%

Question: And the growth at 0.1 µM (IGROV-1)?
Answer: 98.3%

Question: What about the growth at 0.1 µM (UACC-62) of the same molecule?
Answer: 113%

Question: And the growth at 0.1 µM (UACC-257)?
Answer: 147%

Question: And the growth at 0.1 µM (SK-MEL-5)?
Answer: 102%

Question: What about the growth at 0.1 µM (SK-MEL-28) of the same molecule?
Answer: 107%

Question: And the growth at 0.1 µM (MDA-MB-435)?
Answer: 114%

Question: What about the growth at 0.1 µM (M14) of the same molecule?
Answer: 108%

Question: And the growth at 0.1 µM (Malme-3M)?
Answer: 111%

Question: And the growth at 0.1 µM (LOX IMVI)?
Answer: 108%

Question: And the growth at 0.1 µM (U-251)?
Answer: 117%

Question: What about the growth at 0.1 µM (SNB-75) of the same molecule?
Answer: 79.6%

Question: And the growth at 0.1 µM (SF-539)?
Answer: 132%

Question: What about the growth at 0.1 µM (SNB-19) of the same molecule?
Answer: 115%

Question: What about the growth at 0.1 µM (SF-295) of the same molecule?
Answer: 106%

Question: And the growth at 0.1 µM (SF-268)?
Answer: 107%

Question: And the growth at 0.1 µM (SW-620)?
Answer: 107%

Question: And the growth at 0.1 µM (KM12)?
Answer: 107%

Question: And the growth at 0.1 µM (HCT-15)?
Answer: 105%

Question: What about the growth at 0.1 µM (HT-29) of the same molecule?
Answer: 111%

Question: What about the growth at 0.1 µM (HCT-116) of the same molecule?
Answer: 108%

Question: What about the growth at 0.1 µM [1] of the same molecule?
Answer: 116%

Question: And the growth at 0.1 µM (NCI-H460)?
Answer: 122%

Question: And the growth at 0.1 µM (NCI-H522)?
Answer: 105%

Question: What about the growth at 0.1 µM (NCI-H23) of the same molecule?
Answer: 104%

Question: And the growth at 0.1 µM (NCI-H226)?
Answer: 114%

Question: And the growth at 0.1 µM (HOP-62)?
Answer: 116%

Question: And the growth at 0.1 µM [2]?
Answer: 108%

Question: And the growth at 0.1 µM (A549)?
Answer: 112%

Question: And the growth at 0.1 µM (SR)?
Answer: 104%

Question: And the growth at 0.1 µM (MOLT-4)?
Answer: 103%

Question: What about the growth at 0.1 µM (RPMI-8226) of the same molecule?
Answer: 104%

Question: And the growth at 0.1 µM (K562)?
Answer: 117%

Question: What about the growth at 0.1 µM (HL-60) of the same molecule?
Answer: 101%

Question: What about the growth at 0.1 µM (CCRF-CEM) of the same molecule?
Answer: 103%

Question: What about the “growth inhibition (GI)” value [3] of the same molecule?
Answer: 99%

Question: And the MIC ([3]; Mycobacterium tuberculosis, H37Rv)?
Answer: 25 µg/mL (≈ 60.3 µM)

Question: And the MIC (Aspergillus clavatus)?
Answer: 1000 µg/mL (≈ 2410 µM)

Question: What about the MIC (Aspergillus niger) of the same molecule?
Answer: 1000 µg/mL (≈ 2410 µM)

Question: What about the MIC (Candida albicans) of the same molecule?
Answer: 1000 µg/mL (≈ 2410 µM)

Question: What about the MIC (Pseudomonas aeruginosa) of the same molecule?
Answer: 200 µg/mL (≈ 482 µM)

Question: What about the MIC (Escherichia coli) of the same molecule?
Answer: 200 µg/mL (≈ 482 µM)

Question: What about the MIC (Streptococcus pyogenes) of the same molecule?
Answer: 200 µg/mL (≈ 482 µM)

Question: What about the MIC (Staphylococcus aureus) of the same molecule?
Answer: 500 µg/mL (≈ 1210 µM)

Question: What about the growth at 0.1 µM (MDA-MB-468) of the same molecule?
Answer: 98.3%

Question: And the growth at 0.1 µM (T47D)?
Answer: 101%

Question: And the growth at 0.1 µM [4]?
Answer: 133%

Question: What about the growth at 0.1 µM (BT-549) of the same molecule?
Answer: 112%

Question: And the growth at 0.1 µM (MDA-MB-231)?
Answer: 114%

Question: What about the growth at 0.1 µM (DU-145) of the same molecule?
Answer: 112%

Question: And the growth at 0.1 µM (MCF7)?
Answer: 94.4%

Question: What about the growth at 0.1 µM (PC-3) of the same molecule?
Answer: 111%
